The record followed here is patent publication US20250223268A1, “4-Methylsulfonylbenzamide Compound, Preparation Method, Herbicidal Composition And Use” (Jiangsu Flag Chemical Industry Co., Ltd., priority 2022, published 2025).

What all share (assay type): in vivo
Series [1] relates to Oryza sativa subsp. indica. Put plainly: Greenhouse herbicidal activity and crop safety comparison (Test Example 2). The source says: (§1) Pre-emergence: Seeds of gramineous weeds (Echinochloa crusgalli, Echinochloa crusgalli var. zelayensis, Echinochloa phyllopogon, Eleusine indica, Digitaria sanguinalis, Leptochloa chinensis, Setaria viridis, Alopecurus japonicus Steud, Beckmannia syzigachne, Polypogon fugax, Alopecurus aequalis, Lolium multiflorum, Poa annua, Aegilops tataschii, Avena fatua, Alopecurus myosuroides, Bromus japonicus), broadleaf weeds (Eclipta prostrata, Amaranthus retroflexus, Rorippa indica, Myosoton aquaticum, Veronica didyma, Galium aparine, Solanum nigrum, Xanthium sibiricum, Conyza canadensis, Sesbania cannabina, Sagittaria trifolia), and Cyperus iria (Cyperus iria, Scirpus juncoides, Cyperus difformis, etc.) were sown in plastic pots (7 cm diameter) with nutrient soil and bottom holes. Crop seeds (including Oryza sativa subsp. indica, Oryza sativa subsp. japonica, Oryza sativa L. var. Glutinosa matsum, Triticum aestivum, Zea mays, Sorghum bicolor, Setaria italica, Glycine max, Gossypium hirsutum, Brassica napus, Arachis hypogaea) were sown in plastic pots (10 cm diameter) with nutrient soil and bottom holes. After sowing, the seeds were lightly covered with soil, and the soil was moistened via bottom water absorption. The pots were placed in a constant-temperature light-controlled growth chamber for 24 hours before soil spraying. Spraying was performed using a 3WP-2000 walking-type spray tower (produced by the Nanjing Agricultural Mechanization Institute, Ministry of Agriculture) with a spindle speed of 96 mm/r, spray height of 300 mm, effective spray width of 350 mm, spray area of 0.35 m^2, and nozzle flow rate of 390 mL/min.
(§2) After treatment, the test materials were air-dried naturally in the laboratory and then transferred to the growth chamber. Results were assessed 14-30 days later.
(§3) Post-emergence: Seeds of gramineous weeds (Echinochloa crusgalli, Echinochloa crusgalli var. zelayensis, Echinochloa phyllopogon, Eleusine indica, Digitaria sanguinalis, Leptochloa chinensis, Setaria viridis, Alopecurus japonicus Steud, Beckmannia syzigachne, Polypogon fugax, Alopecurus aequalis, Lolium multiflorum, Poa annua, Aegilops tataschii, Avena fatua, Alopecurus myosuroides, Bromus japonicus), broadleaf weeds (Eclipta prostrata, Amaranthus retroflexus, Rorippa indica, Myosoton aquaticum, Veronica didyma, Galium aparine, Solanum nigrum, Xanthium sibiricum, Conyza canadensis, Sesbania cannabina, Sagittaria trifolia), and Cyperus iria (Cyperus iria, Scirpus juncoides, Cyperus difformis, etc.) were sown in plastic pots (7 cm diameter) with nutrient soil and bottom holes. Crop seeds (including Oryza sativa subsp. indica, Oryza sativa subsp. japonica, Oryza sativa L. var. Glutinosa matsum, Triticum aestivum, Zea mays, Sorghum bicolor, Setaria italica, Glycine max, Gossypium hirsutum, Brassica napus, Arachis hypogaea) were sown in plastic pots (10 cm diameter) with nutrient soil and bottom holes. After sowing, the pots were placed in the growth chamber until the plants reached the 3-6 leaf stage for foliar spraying. Post-treatment, the materials were air-dried naturally and returned to the growth chamber. Results were assessed 14-21 days later.
(§4) • A: Fresh weight inhibition rate≥80% to 100%; • B: Fresh weight inhibition rate[…] to <80%; • C: Fresh weight inhibition rate≥40% to <60%; • D: Fresh weight inhibition rate≥20% to <40%; • E: Fresh weight inhibition rate<20%; • NT: Not tested.
(§5) Using the above method, the herbicidal activity and crop safety of the present compounds were compared with structurally similar known compounds (CK1, CK2, CK3, CK4: compounds 4-756, 4-759, 1-557, 1-563 from WO2012028579A1; CK5: compound 290-1 from WO2013087577A1; CK6: compound 1-129 from WO2011035874A1).

The test system of series [2] is Echinochloa crusgalli. The description is as above.
From the text: as §1, §2, §3, §4, §5

The subject of series [3] is Oryza sativa subsp. japonica. The series is described as above.
From the text: as §1, §2, §3, §4, §5

Series [4] deals with Eclipta prostrata. Briefly: Greenhouse herbicidal activity assay, post-emergence. The following applies: Post-emergence test, rate 150 g a.i./hm^2; grade by fresh weight inhibition rate. The essentials:
(§6)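 Graded A (≥80%) to E (<20%) by fresh weight inhibition, read 14-21 days after spraying. Plants were pot-grown in a growth chamber and received foliar application at the 3-6 leaf stage, being air-dried and returned to the chamber afterwards.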

Series [5] relates to Digitaria sanguinalis. Described as above. The following applies: Post-emergence test, rate 150 g a.i./hm^2; grade by fresh weight inhibition rate. The essentials:
as §6

The test system of series [6] is Echinochloa crusgalli. The description is as above. The following applies: Post-emergence test, rate 150 g a.i./hm^2, grade by fresh weight inhibition rate. Summed up:
as §6

The test system of series [7] is Leptochloa chinensis. The series is described as above. The following applies: Post-emergence test, rate 150 g a.i./hm^2; grade by fresh weight inhibition rate. Summed up: as §6
Series [8] concerns Cyperus iria. The series is described as above. The settings on record: Post-emergence test, rate 150 g a.i./hm^2; grade by fresh weight inhibition rate. The essentials: as §6
[9] abbreviates: Echinochloa crus-galli, Rate 75 g/ha, read-out: Echinochloa crusgalli, control efficacy grading (fresh weight inhibition rate).
Setting [10] is: Echinochloa crus-galli, Rate 150 g/ha, read-out: Echinochloa crusgalli, control efficacy grading (fresh weight inhibition rate).

Structures are written as SMILES.

`CCC(C)S(=O)(=O)c1c(S(C)(=O)=O)ccc(C(=O)Nc2nnnn2C)c1Cl` (racemic) [Compound 1-24]: in series [1] (Rate 150 g/ha), the “Oryza sativa subsp. indica, grading of fresh weight inhibition rate (crop safety)” value is recorded as “E (Fresh weight inhibition rate<20%)”. Moreover, the “Echinochloa crusgalli, control efficacy grading (fresh weight inhibition rate)” value in series [2] (Rate 150 g/ha) was “A (Fresh weight inhibition rate≥80% to 100%)”. Also, the “Oryza sativa subsp. japonica, grading of fresh weight inhibition rate (crop safety)” value in series [3] (Rate 150 g/ha) was “E (Fresh weight inhibition rate<20%)”. In series [4], the “Control efficacy grade, Eclipta prostrata” value is given as “A (Fresh weight inhibition rate≥80% to 100%)”. The “Control efficacy grade, Digitaria sanguinalis” value in series [5] was “B (Fresh weight inhibition rate≥260% to <80%)”. Also, the “Control efficacy grade, Echinochloa crusgalli” value in series [6] was “A (Fresh weight inhibition rate≥80% to 100%)”. Also, in series [7], the “Control efficacy grade, Leptochloa chinensis” value is listed as “A (Fresh weight inhibition rate≥80% to 100%)”. In addition, the “Control efficacy grade, Cyperus iria” value in series [8] was “A (Fresh weight inhibition rate≥80% to 100%)”.

As a reminder, the inhibition is how much of the control response was suppressed. With `CCC[S+]([O-])c1c(S(C)(=O)=O)ccc(C(=O)N(C)c2nnc(C)o2)c1Cl` (racemic) [Compound 3-787, 2-chloro-N-methyl-N-(5-methyl-1,3,4-oxadiazol-2-yl)-4-(methylsulfonyl)-3-(propylsulfinyl)benzamide], the “Oryza sativa subsp. indica, grading of fresh weight inhibition rate (crop safety)” value in series [1] (Rate 75 g/ha) and in series [1] (Rate 150 g/ha) was “E (Fresh weight inhibition rate<20%)” each time. In addition, the inhibition at 75 g/ha in series [2] (setting [9]) is 80 to 100%. Also, in series [2] (setting [10]), the inhibition at 150 g/ha lay in the range of 80 to 100%. Further, the “Oryza sativa subsp. japonica, grading of fresh weight inhibition rate (crop safety)” value in series [3] (Rate 75 g/ha) and in series [3] (Rate 150 g/ha) was “E (Fresh weight inhibition rate<20%)” throughout. Moreover, the pest or weed control at 150 g/ha in series [6] (Echinochloa crus-galli, read-out: Control efficacy grade, Echinochloa crusgalli) was in the range of 80 to 100%.

Turning to `CCC[S+]([O-])c1c(S(C)(=O)=O)ccc(C(=O)N(C)c2nnco2)c1Cl` (racemic) [Compound 3-795], the “Oryza sativa subsp. indica, grading of fresh weight inhibition rate (crop safety)” value in series [1] (Rate 150 g/ha) was “E (Fresh weight inhibition rate<20%)”. In series [2] (Rate 150 g/ha), the “Echinochloa crusgalli, control efficacy grading (fresh weight inhibition rate)” value is “A (Fresh weight inhibition rate≥80% to 100%)”. The “Oryza sativa subsp. japonica, grading of fresh weight inhibition rate (crop safety)” value in series [3] (Rate 150 g/ha) is recorded as “E (Fresh weight inhibition rate<20%)”. Also, in series [6], the “Control efficacy grade, Echinochloa crusgalli” value is “A (Fresh weight inhibition rate≥80% to 100%)”.

`CCC[S+]([O-])c1c(S(C)(=O)=O)ccc(C(=O)N(C)c2nnc(CC)o2)c1Cl` (racemic) [Compound 3-798]: the “Oryza sativa subsp. indica, grading of fresh weight inhibition rate (crop safety)” value in series [1] (Rate 150 g/ha) was “E (Fresh weight inhibition rate<20%)”. Further, in series [2] (Rate 150 g/ha), the “Echinochloa crusgalli, control efficacy grading (fresh weight inhibition rate)” value is “A (Fresh weight inhibition rate≥80% to 100%)”. For the same compound, the “Oryza sativa subsp. japonica, grading of fresh weight inhibition rate (crop safety)” value in series [3] (Rate 150 g/ha) is listed as “E (Fresh weight inhibition rate<20%)”. Besides, the “Control efficacy grade, Echinochloa crusgalli” value in series [6] was “A (Fresh weight inhibition rate≥80% to 100%)”.

In the case of `CCC[S+]([O-])c1c(S(C)(=O)=O)ccc(C(=O)N(C)c2nnc(C)o2)c1Cl` (single isomer, unassigned) [Compound 3-788], the “Oryza sativa subsp. indica, grading of fresh weight inhibition rate (crop safety)” value in series [1] (Rate 75 g/ha) and in series [1] (Rate 150 g/ha) was “E (Fresh weight inhibition rate<20%)” throughout. Besides, the “Echinochloa crusgalli, control efficacy grading (fresh weight inhibition rate)” value in series [2] (Rate 75 g/ha) and in series [2] (Rate 150 g/ha) was “A (Fresh weight inhibition rate≥80% to 100%)” each time. Moreover, the “Oryza sativa subsp. japonica, grading of fresh weight inhibition rate (crop safety)” value in series [3] (Rate 75 g/ha) and in series [3] (Rate 150 g/ha) was “E (Fresh weight inhibition rate<20%)” throughout. Moreover, the “Control efficacy grade, Echinochloa crusgalli” value in series [6] was “A (Fresh weight inhibition rate≥80% to 100%)”. For the same compound, the “Control efficacy grade, Leptochloa chinensis” value in series [7] is “A (Fresh weight inhibition rate≥80% to 100%)”.

`Cc1nnc(N(C)C(=O)c2ccc(S(C)(=O)=O)c([S+](C)[O-])c2Cl)o1` (centres unmarked) [CK5, reference compound]: the “Oryza sativa subsp. indica, grading of fresh weight inhibition rate (crop safety)” value is on record as “E (Fresh weight inhibition rate<20%)” in series [1] (Rate 18.75 g/ha), “E (Fresh weight inhibition rate<20%)” in series [1] (Rate 75 g/ha) and “D (Fresh weight inhibition rate≥20% to <40%)” in series [1] (Rate 150 g/ha). Besides, the inhibition at 18.75 g/ha in series [2] (Echinochloa crus-galli, Rate 18.75 g/ha, read-out: Echinochloa crusgalli, control efficacy grading (fresh weight inhibition rate)) was < 20%. For the same compound, in series [2] (setting [9]), the inhibition at 75 g/ha is < 20%. For the same compound, in series [2] (setting [10]), the inhibition at 150 g/ha lay within 20 to 40%. The “Oryza sativa subsp. japonica, grading of fresh weight inhibition rate (crop safety)” value in series [3] (Rate 18.75 g/ha), in series [3] (Rate 75 g/ha) and in series [3] (Rate 150 g/ha) was “E (Fresh weight inhibition rate<20%)” each time.

With `Cn1nnnc1NC(=O)c1ccc(S(C)(=O)=O)c(S(=O)(=O)C2CCC2)c1Cl` [Compound 1-41], the “Oryza sativa subsp. indica, grading of fresh weight inhibition rate (crop safety)” value in series [1] (Rate 150 g/ha) is “E (Fresh weight inhibition rate<20%)”. In addition, the “Echinochloa crusgalli, control efficacy grading (fresh weight inhibition rate)” value in series [2] (Rate 150 g/ha) is listed as “A (Fresh weight inhibition rate≥80% to 100%)”. Moreover, the “Oryza sativa subsp. japonica, grading of fresh weight inhibition rate (crop safety)” value in series [3] (Rate 150 g/ha) is “E (Fresh weight inhibition rate<20%)”. The “Control efficacy grade, Eclipta prostrata” value in series [4] was “A (Fresh weight inhibition rate≥80% to 100%)”. Further, the “Control efficacy grade, Echinochloa crusgalli” value in series [6] was “A (Fresh weight inhibition rate≥80% to 100%)”. For the same compound, the “Control efficacy grade, Leptochloa chinensis” value in series [7] is “A (Fresh weight inhibition rate≥80% to 100%)”. Besides, the “Control efficacy grade, Cyperus iria” value in series [8] is “A (Fresh weight inhibition rate≥80% to 100%)”.

On to `Cn1nnnc1NC(=O)c1ccc(S(C)(=O)=O)c(S(=O)(=O)C2CCCC2)c1Cl` [Compound 1-46], for which, in series [1] (Rate 150 g/ha), the “Oryza sativa subsp. indica, grading of fresh weight inhibition rate (crop safety)” value is recorded as “E (Fresh weight inhibition rate<20%)”. The “Echinochloa crusgalli, control efficacy grading (fresh weight inhibition rate)” value in series [2] (Rate 150 g/ha) is on record as “A (Fresh weight inhibition rate≥80% to 100%)”. The “Oryza sativa subsp. japonica, grading of fresh weight inhibition rate (crop safety)” value in series [3] (Rate 150 g/ha) is on record as “E (Fresh weight inhibition rate<20%)”. Further, the “Control efficacy grade, Eclipta prostrata” value in series [4] is “A (Fresh weight inhibition rate≥80% to 100%)”. The “Control efficacy grade, Echinochloa crusgalli” value in series [6] was “A (Fresh weight inhibition rate≥80% to 100%)”. In addition, the “Control efficacy grade, Cyperus iria” value in series [8] is reported as “A (Fresh weight inhibition rate≥80% to 100%)”.

Turning to `CCCS(=O)(=O)c1c(S(C)(=O)=O)ccc(C(=O)Nc2nnnn2CC)c1Cl` [Compound 1-91], in series [1] (Rate 150 g/ha), the “Oryza sativa subsp. indica, grading of fresh weight inhibition rate (crop safety)” value is “E (Fresh weight inhibition rate<20%)”. Further, in series [2] (Rate 150 g/ha), the “Echinochloa crusgalli, control efficacy grading (fresh weight inhibition rate)” value is “A (Fresh weight inhibition rate≥80% to 100%)”. Besides, the “Oryza sativa subsp. japonica, grading of fresh weight inhibition rate (crop safety)” value in series [3] (Rate 150 g/ha) is “E (Fresh weight inhibition rate<20%)”.

In the case of `CCn1nnnc1NC(=O)c1ccc(S(C)(=O)=O)c(S(=O)(=O)C(C)C)c1Cl` [Compound 1-96, 2-chloro-N-(1-ethyl-1H-tetrazol-5-yl)-3-(isopropylsulfonyl)-4-(methylsulfonyl)benzamide], in series [1] (Rate 150 g/ha), the “Oryza sativa subsp. indica, grading of fresh weight inhibition rate (crop safety)” value is “E (Fresh weight inhibition rate<20%)”. Also, the inhibition at 150 g/ha in series [2] (setting [10]) was in the range of 80 to 100%. For the same compound, the “Oryza sativa subsp. japonica, grading of fresh weight inhibition rate (crop safety)” value in series [3] (Rate 150 g/ha) was “E (Fresh weight inhibition rate<20%)”.
